Where two headings read alike, the source gives them in different places.
Assays:
[1] = Brain pharmacokinetics in mice; conditions: mouse
[2] = Plasma pharmacokinetics in mice
[3] = Plasma pharmacokinetics in rats; conditions: rats
[4] = Brain pharmacokinetics in rats; conditions: rats, after CBZ i.p.
adult male CF-1 mice [5] = test: 6 Hz 44 mA seizure test in mice; format: in vivo, mouse
[6] = test system: male adult Sprague-Dawley rats; test: 6 Hz 80 V seizure test in rats; format: in vivo, rat; conditions: for Seizure protection (in words): rats, any time-point
[7] = CF-1, mouse, in vivo
[8] = CF-1, mouse, in vivo; remark: listed apart in the source
[9] = Sprague Dawley, rat, in vivo
[10] = Sprague Dawley, rat, in vivo; remark: listed apart in the source
in vivo [11] = conditions: CF-1, mouse, ip; for half-life: Plasma t1/2
in vivo [12] = conditions: Sprague Dawley, rat, ip
in vivo [13] = conditions: Sprague Dawley, rat, ip, Brain t1/2
mice = conditions: mouse, cited from earlier work
rats = conditions: rat, minimum motor impairment test, i.p.; cited from earlier work
[14] = test system: adult Sprague-Dawley rats; test: Maximal electroshock; format: in vivo, rat; conditions: MES; for Efficacy in rats (number seizure protected /number tested): low dose i.p. (CLB 17, CBZ 3, VPA 165 mg/kg); for Seizure protection (in words): rats
adult male CF-1 mice [15] = conditions: mouse, 6 Hz 44 mA, i.p.; cited from earlier work
[16] = test system: adult Sprague-Dawley rats; conditions: rat, MES, i.p.; cited from earlier work
in vivo [17] = conditions: CF-1, mouse, ip
[18] = metabolite after high parent dose i.p.: CLB 17, CBZ 40 mg/kg
[19] = metabolite after low parent dose i.p.: CLB 7, CBZ 7 mg/kg
[20] = mouse, metabolite after high parent dose i.p.: CLB 17, CBZ 40 mg/kg
[21] = mouse, metabolite after low parent dose i.p.: CLB 7, CBZ 7 mg/kg
[22] = high dose i.p. (CLB 17, VPA 570, LEV 500 mg/kg), time test 0.25 h
[23] = high dose i.p. (CLB 17, VPA 570, LEV 500 mg/kg), time test 0.5 h
[24] = high dose i.p. (CLB 17, VPA 570, LEV 500 mg/kg), time test 1 h
[25] = high dose i.p. (CLB 17, VPA 570, LEV 500 mg/kg), time test 2 h
[26] = high dose i.p. (CLB 17, VPA 570, LEV 500 mg/kg), time test 4 h
[27] = high dose i.p. (CLB 17, VPA 570, LEV 500 mg/kg), time test 8 h
[28] = low dose i.p. (CLB 7, VPA 260, LEV 20 mg/kg), time test 0.25 h
[29] = low dose i.p. (CLB 7, VPA 260, LEV 20 mg/kg), time test 0.5 h
[30] = low dose i.p. (CLB 7, VPA 260, LEV 20 mg/kg), time test 1 h
[31] = low dose i.p. (CLB 7, VPA 260, LEV 20 mg/kg), time test 2 h
[32] = low dose i.p. (CLB 7, VPA 260, LEV 20 mg/kg), time test 4 h
[33] = low dose i.p. (CLB 7, VPA 260, LEV 20 mg/kg), time test 8 h
[34] = mice, low dose i.p. (VPA 260, LEV 20 mg/kg)

O=C1CC(=O)N(c2ccccc2)c2cc(Cl)ccc2N1 [NCLB, N-desmethyl clobazam]
Brain/Plasma AUC ratio of active metabolite [1, 18]: 1.64 | Brain/Plasma AUC ratio of active metabolite [1, 19]: 1.88 | NCLB concentrations relative to CLB ([2]; mice, after CLB i.p., fold greater than CLB): approximately 10 fold | Plasma AUC of NCLB relative to CLB ([2]; mouse, after CLB i.p., fold greater than CLB): approximately 10 fold | Plasma t1/2 of metabolite [2, 20]: 266 min | Plasma t1/2 of metabolite [2, 21]: 385 min | NCLB concentrations relative to CLB ([3]; plasma and brain, after CLB i.p., fold less than CLB): ~ 20 fold

NC(=O)N1c2ccccc2C2OC2c2ccccc21 (stereo not shown) [CBZE, carbamazepine-10,11-epoxide]
Brain/Plasma AUC ratio of active metabolite [1, 18]: 1.00 | Brain/Plasma AUC ratio of active metabolite [1, 19]: 1.20 | Brain half-life of metabolite [4]: approximately 4 hrs | Plasma half-life of CBZE relative to CBZ ([2]; mice, high dose CBZ 40 mg/kg i.p., fold longer than CBZ): ~ 3 fold | Plasma t1/2 of metabolite [2, 20]: 239 min | Plasma t1/2 of metabolite [2, 21]: 72 min | CBZE plasma exposures as % of CBZ ([3]; after CBZ i.p.): approximately 70% | Plasma half-life of metabolite ([3]; after CBZ i.p.): approximately 4 hrs

CC[C@@H](C(N)=O)N1CCCC1=O [LEV, levetiracetam]
Efficacy in mice (number seizure protected/number tested) (adult male CF-1 mice [5]; [22]): 1/4 | Efficacy in mice (number seizure protected/number tested) (adult male CF-1 mice [5]; [23]): 1/4 | Efficacy in mice (number seizure protected/number tested) (adult male CF-1 mice [5]; [24]): 1/4 | Efficacy in mice (number seizure protected/number tested) (adult male CF-1 mice [5]; [25]): 1/4 | Efficacy in mice (number seizure protected/number tested) (adult male CF-1 mice [5]; [26]): 1/4 | Efficacy in mice (number seizure protected/number tested) (adult male CF-1 mice [5]; [27]): 0/4 | Efficacy in mice (number seizure protected/number tested) (adult male CF-1 mice [5]; [28]): 0/4 | Efficacy in mice (number seizure protected/number tested) (adult male CF-1 mice [5]; [29]): 0/4 | Efficacy in mice (number seizure protected/number tested) (adult male CF-1 mice [5]; [30]): 0/4 | Efficacy in mice (number seizure protected/number tested) (adult male CF-1 mice [5]; [31]): 0/4 | Efficacy in mice (number seizure protected/number tested) (adult male CF-1 mice [5]; [32]): 0/4 | Efficacy in mice (number seizure protected/number tested) (adult male CF-1 mice [5]; [33]): 0/4 | Protection against seizures (adult male CF-1 mice [5]; mice, high-dose LEV (500 mg/kg i.p.), within 4 hrs post-dose): 25% | Seizure protection (in words) (adult male CF-1 mice [5]; [34]): did not protect | Efficacy in rats (number seizure protected /number tested) ([6]; high dose i.p. (LEV 800 mg/kg), time test 0.25 h): 0/4 | Efficacy in rats (number seizure protected /number tested) ([6]; high dose i.p. (LEV 800 mg/kg), time test 0.5 h): 0/4 | Efficacy in rats (number seizure protected /number tested) ([6]; high dose i.p. (LEV 800 mg/kg), time test 1 h): 0/4 | Efficacy in rats (number seizure protected /number tested) ([6]; high dose i.p. (LEV 800 mg/kg), time test 2 h): 0/4 | Efficacy in rats (number seizure protected /number tested) ([6]; high dose i.p. (LEV 800 mg/kg), time test 4 h): 0/4 | Efficacy in rats (number seizure protected /number tested) ([6]; high dose i.p. (LEV 800 mg/kg), time test 8 h): 0/4 | Efficacy in rats (number seizure protected /number tested) ([6]; low dose i.p. (LEV 14 mg/kg), time test 0.25 h): 0/4 | Efficacy in rats (number seizure protected /number tested) ([6]; low dose i.p. (LEV 14 mg/kg), time test 0.5 h): 0/4 | Efficacy in rats (number seizure protected /number tested) ([6]; low dose i.p. (LEV 14 mg/kg), time test 1 h): 0/4 | Efficacy in rats (number seizure protected /number tested) ([6]; low dose i.p. (LEV 14 mg/kg), time test 2 h): 0/4 | Efficacy in rats (number seizure protected /number tested) ([6]; low dose i.p. (LEV 14 mg/kg), time test 4 h): 0/4 | Efficacy in rats (number seizure protected /number tested) ([6]; low dose i.p. (LEV 14 mg/kg), time test 8 h): 0/4 | Seizure protection (in words) ([6]; high dose LEV 800 mg/kg i.p.): failed to protect | Seizure protection (in words) ([6]; low dose LEV 14 mg/kg i.p.): failed to protect | Plasma Dose Prop (AUC) [7]: 1.27 | Plasma Dose Prop (Cmax) [7]: 1.00 | Plasma t1/2 ([7]; ip): 123 min | Brain Dose Prop (AUC) [8]: 1.03 | Plasma Dose Prop (AUC) [9]: 0.55 | Plasma Dose Prop (Cmax) [9]: 0.500 | Plasma t1/2 ([9]; ip): 191 min | Brain Dose Prop (AUC) [10]: 0.56 | Brain t1/2 ([10]; ip): 212 min | Tmax (in vivo [11]): 15 min | half-life (in vivo [11]): 103 min | half-life (in vivo [12]; Plasma t1/2): 370 min | half-life (in vivo [13]): 265 min | TD50 - high dose (mice; rotarod test, i.p.): 500 mg/kg | TD50 - high dose (rats): 800 mg/kg

CCCC(CCC)C(=O)O [VPA, sodium valproate]
Efficacy in mice (number seizure protected/number tested) (adult male CF-1 mice [5]; [22]): 4/4 | Efficacy in mice (number seizure protected/number tested) (adult male CF-1 mice [5]; [23]): 4/4 | Efficacy in mice (number seizure protected/number tested) (adult male CF-1 mice [5]; [24]): 4/4 | Efficacy in mice (number seizure protected/number tested) (adult male CF-1 mice [5]; [25]): 4/4 | Efficacy in mice (number seizure protected/number tested) (adult male CF-1 mice [5]; [26]): 0/4 | Efficacy in mice (number seizure protected/number tested) (adult male CF-1 mice [5]; [27]): 0/4 | Efficacy in mice (number seizure protected/number tested) (adult male CF-1 mice [5]; [28]): 4/4 | Efficacy in mice (number seizure protected/number tested) (adult male CF-1 mice [5]; [29]): 3/4 | Efficacy in mice (number seizure protected/number tested) (adult male CF-1 mice [5]; [30]): 0/4 | Efficacy in mice (number seizure protected/number tested) (adult male CF-1 mice [5]; [31]): 0/4 | Efficacy in mice (number seizure protected/number tested) (adult male CF-1 mice [5]; [32]): 0/4 | Efficacy in mice (number seizure protected/number tested) (adult male CF-1 mice [5]; [33]): 0/4 | Brain concentration needed for complete seizure protection (adult male CF-1 mice [5]; mice, comparison of the two VPA dose levels): above 100 ng/mg | Seizure protection (in words) (adult male CF-1 mice [5]; mice, high dose i.p. (VPA 570 mg/kg), sustained only within 2 hrs): maximal antiseizure efficacy | Seizure protection (in words) (adult male CF-1 mice [5]; [34]): seizure protection was observed within the first hour | Efficacy in rats (number seizure protected /number tested) ([14]; time test 0.25 h): 3/4 | Efficacy in rats (number seizure protected /number tested) ([14]; time test 0.5 h): 3/4 | Efficacy in rats (number seizure protected /number tested) ([14]; time test 1 h): 1/4 | Efficacy in rats (number seizure protected /number tested) ([14]; time test 2 h): 0/4 | Efficacy in rats (number seizure protected /number tested) ([14]; time test 4 h): 0/4 | Efficacy in rats (number seizure protected /number tested) ([14]; time test 8 h): 0/4 | Seizure protection (in words) ([14]; high dose i.p. (CLB 37, VPA 315 mg/kg)): full to moderate seizure protection | Seizure protection (in words) ([14]; low dose i.p. (CLB 17, VPA 165 mg/kg)): moderate protection | Plasma Dose Prop (Cmax) [7]: 0.863 | Brain Dose Prop (AUC) [8]: 2.17 | Brain t1/2 ([8]; ip): 76.8 min | Plasma Dose Prop (Cmax) [9]: 0.902 | Time to total drug elimination (>97% drug eliminated) ([9]; ip): less than 4.5 hrs | Brain Dose Prop (AUC) [10]: 1.84 | ED50 - low dose (adult male CF-1 mice [15]): 260 mg/kg | ED50 - low dose [16]: 165 mg/kg | Tmax (in vivo [11]): 30 min | Tmax (in vivo [11]; Plasma Tmax): 15 min | half-life (in vivo [11]): 43.8 min | Tmax (in vivo [17]): 30 min | Tmax (in vivo [17]; Brain Tmax): 15 min | half-life (in vivo [17]; Brain t1/2): 55.6 min | Tmax (in vivo [12]; Plasma Tmax): 15 min | TD50 - high dose (mice; in vivo, ip): 570 mg/kg
